melting point [°C] | SMILES
134 to 135 | Clc1ccc2c(C3CCN(CCCC4Cc5ccccc5C4)CC3)c[nH]c2c1
126 to 127 | O=C(CCc1ccccc1)N[C@H](Cc1ccc(C(F)(F)F)cc1)[C@@H](O)c1ccc(F)cc1F (racemic)
226 to 227 | CCCc1nc2c(N)nc3ccccc3c2n1Cc1cc(-c2ccc(F)cc2)no1
106 | CON=C(C(=O)OC)c1cccs1
122 to 123 | O=c1n(CCCCN2CCN(c3cccc(Cl)c3)CC2)nc2ccccn12
115 | CCOCOCCCc1ccc(C(=O)O)cc1C12CC3CC(CC(C3)C1)C2
165 to 168 | CCc1nc2c(C)cc(C)nc2n1Cc1ccc(NCC2CCNCC2)cc1
104 to 106 | CN(C)C(=O)C(C#N)=C(O)c1ccc(C(F)(F)F)cc1[N+](=O)[O-]
103 to 105 | O=C(NCCCCn1cncn1)c1sc2ccccc2c1Cl
88.5 to 90 | CC(C)(C)OC(=O)CCc1ccc(C[C@H](NC(=O)OC(C)(C)C)C(=O)O)cc1
174 to 175 | CCN1C(=O)C(C)(C)C(=O)N(C)c2cc(CN(CCn3cc(C)c4sccc4c3=O)Cc3cnccc3C)ccc21
200 to 202 | CC(=Nc1ccc2c(c1)C(=O)c1ccc(N=C(C)N3CCC(C)CC3)cc1C2=O)N1CCC(C)CC1
248 to 250 | CN1C(=O)CC[C@]2(C)c3ccc(-c4ccc(NC(=O)C(C)(C)C)nc4)cc3CC[C@@H]12
199 to 201 | O=C(Nc1ccc(C(=O)N2Cc3ccccc3Cc3cc(Cl)ccc32)cc1)c1ccc(Cl)cc1Cl
206 to 208 | CCNC(=O)Nc1ccc(-c2sc3c(c2CN(C)CCOC)c(=O)n(-c2ccc(OCCOC)c(OCCOC)c2)c(=O)n3Cc2c(F)cccc2F)cc1
154 to 155 | N#Cc1ccc(N2C(=O)N(CCCCCN3C(=O)N(c4ccc(C#N)c(C(F)(F)F)c4)C(=O)C34CC4)C3(CC3)C2=O)cc1C(F)(F)F
158 to 160 | CC(=O)OCCOC(=O)C1=C(C)NC(C)=C([N+](=O)[O-])C1c1ccccc1Cl (centres undefined)
130 to 131 | COc1ccc2c(c1)CC(C)C1C2C(C)CC2(C)C(O)CCC12 (centres undefined)
176 to 177 | Cc1c(C(=O)Nc2ccc(N3CCN(CCO)CC3)c(C#N)c2)cnn1-c1cccc(Cl)c1
105 to 106 | COc1cc(OCc2ccc3ccccc3c2)cc(C(=O)c2nccs2)c1
153 to 156 | CC1(COc2ccc(Cc3nnn[nH]3)cc2)CCCCC1=NO (centres undefined)
136 to 138 | CCCCCCOc1ccc(C(=O)c2cccc(C(=O)O)c2)c(C)c1
174 to 176 | CN(C)S(=O)(=O)c1ccc(N2CC(CO)OC2=O)cc1 (centres undefined)

melting point [°C] | SMILES
102 | CCN1C(=O)C(C)N(c2ccc(Oc3ccccc3)cc2)C1=S (centres undefined)
284 to 285 | CCN1c2ncccc2C(=O)N(C)c2ccc(-c3c[nH]c(C(N)=O)c3)nc21
201 | Cc1cc(Oc2ccc(-c3ccn(CC4CC4)c(=O)c3C#N)cc2F)cc(C)n1
78 to 79 | Cc1c(C#N)ccc(Cl)c1Cl
97 to 98 | CC(=O)C1(C)CCc2c(C)c(O)c(C)c(C)c2O1 (centres undefined)
210 to 211 | O=C(O)CNC(=O)c1nc(Cl)c2ccc(OCc3ccccc3)cc2c1O
> 225 | CNC(=O)COc1cccc2c1S(=O)(=O)N=C2C1=C(O)C(C(C)(C)C)N(Cc2ccc(F)cc2)C1=O (centres undefined)
132 to 133 | CCOC(=O)c1cc(-c2nnnn2C)c(-c2ccc(F)cc2)s1
210 to 212 | Cn1c(=O)c2c(NC(=O)C3CCCCC3)onc2n(C)c1=O
122 to 124 | N=C(NC(c1ccccc1)c1ccccc1)N1CCOCC1
136 to 137 | COC(=O)[C@H]1Cc2ccc(C)cc2C(=O)[C@H](c2ccccc2)S1 (relative stereo)
151 to 153 | COc1ccc(C(=N)N)cc1C
260 to 261 | CCOc1ccc(-c2nc(-c3cc(C=CC(=O)O)c(O)c(C(=O)O)c3)cs2)cc1OCC
247 | NS(=O)(=O)c1cccc(-c2noc(-c3cnn4c(C(F)(F)F)cc(-c5ccc(Cl)cc5)nc34)n2)c1
185 to 186 | Cc1ccc(C(=O)NC(NC(=S)Nc2cccc([N+](=O)[O-])c2)C(F)(F)F)cc1 (centres undefined)
201 to 203 | Oc1cccc(C=Cc2nc(-c3ccccc3)c(-c3ccccc3)o2)c1
94 to 95 | COc1ccc2cc(CCC(C)O)ccc2c1 (centres undefined)
133 to 134 | CC(C)C[C@H](NC(=O)[C@H](CC(C)C)N[C@H](CC(C)C)C(=O)OCc1ccccc1)C(=O)N[C@@H](C)C(N)=O
135 to 138 | C=CCOc1ccc(-c2nc3n(c2-c2ccc(OCC=C)cc2)CCS3)cc1
138 to 140 | CC(C)(C)c1ccc(O[C@@H]2CCNC[C@H]2O)cc1 (relative stereo)
208 | COc1cc(CN2C(=O)c3ccsc3CC2C(=O)O)cc(OC)c1OC (centres undefined)
235 to 237 | O=C(O)C=C1SC(=Nc2ccc(Br)c(Br)c2)N(c2ccc(Br)c(Br)c2)C1=O
69 to 70 | COC(=O)Cc1cc(OC)ccc1O

melting point [°C] | SMILES
89 to 90 | CSc1cncnc1-c1ssc(=S)c1C
142 to 144 | C[C@H]1CC[C@H]2C(C)(C)[C@@H](O)[C@@H](OS(=O)(=O)c3ccccc3)C[C@]23Oc2c(c(O)cc4c2CNC4=O)C[C@]13C
79 to 81 | CNC(=NCCSCc1cc(CN2CCCCC2)ccn1)NC#N
> 300 | CCOC(=O)c1cnc2c(O)nccn2c1=O
162 | CC(=O)OC1CSC(Oc2cncc(-c3cccnc3Cl)c2)C(OC(C)=O)C1OC(C)=O (centres undefined)
258 | Cc1c(C(=O)O)cnn1-c1nc(-c2cccc(Cl)c2)cs1
112 to 115 | COc1ccc2cc(C(C)COS(N)(=O)=O)ccc2c1 (centres undefined)
356 to 360 | Nc1nc(-c2cc(F)cc(F)c2)nc2nc(-c3ccco3)nn12
62 | C=CCOc1cc(Br)ccc1C(=O)OC
185 to 187 | Nc1nc(-c2cc(Cl)ccc2Cl)nc(N2CCN(CCO)CC2)n1
233 to 235 | CCn1cc(C(=O)O)c(=O)c2cc(F)c(N[C@@H]3CCC[C@@H]3N)cc21 (relative stereo)
144 to 145 | O=C(NCCCCCCCCCNC(=O)c1ccc(OC(F)(F)F)cc1)c1ccc(OC(F)(F)F)cc1
68 to 69 | CC(=O)c1cnc2c(n1)C(C)(C)CCC2(C)C
102 to 103 | Clc1cncc(Cl)c1C1=NC(c2ccc(Br)cc2)CO1 (centres undefined)
184 to 185 | COCCN1C(=O)C(C)(C)C(=O)Nc2cc(C#N)ccc21
135 | CCc1nc2c(o1)C(=O)C(C)=C(NCCN(C)C)C2=O
86 to 87 | C/C=C(\C(=O)N(CC)CC)c1cc(OC)c(O)c2c(Cc3ccccc3)cccc12
193 to 195 | COCCCN1C(=O)COc2ccc(Br)cc21
110 to 112 | CCc1cc2nc(N)c(-c3ccccc3)cc2c(CC)n1
128 to 130 | COc1cc(S(=O)(=O)c2ccccc2)ccc1[N+](=O)[O-]
164 to 165 | O=C1C(=O)c2ccccc2C2=C1SCC1(CCN(CCCOc3ccc(F)cc3)CC1)O2
75 to 76 | CCOC(=O)c1sc(I)nc1C(F)(F)F
106 to 107 | Oc1cc2c(cc1OCCCOc1ccccc1)OCC2

melting point [°C] | SMILES
138 to 145 | CCCCc1nccn1Cc1ccc2oc(-c3ccccc3C(=O)O)c(Br)c2c1
90 to 92 | COc1ccc(C(=O)OC2CCCC2)nc1Cl
134 | Cc1cc(NC(=O)C(C)(C)Sc2ccc(Cl)cc2)c(C)c(C)c1O
248 to 250 | CCn1c(=O)c(=O)[nH]c2cc(-n3cccc3)c([N+](=O)[O-])cc21
51 to 54 | C[Si](C)(C)C#Cc1ccnc(Cl)n1
113 to 114 | CC(C)(C)OC(=O)c1ccc(C=NO)cc1
175 to 176 | Cc1c(CC(=O)O)c2cc(OCc3nc4ccccc4s3)ccc2n1Cc1ccc(Cl)cc1
111 to 112 | CCN(CC)C(=O)c1ccc2ccccc2c1-c1ccc(C(F)(F)F)cc1
115 to 116 | COC(=O)CN(C1(C(=O)C2CCCCC2)C=C(Cl)C=CC1)S(=O)(=O)c1ccc(OC)cc1 (centres undefined)
287 to 289 | CC1(C)C(=O)Nc2cc(-c3nc4ccc(Cl)cc4[nH]3)ccc21
94 to 97 | Cc1nc(-n2cc(CCCc3ccccc3)nn2)sc1C(=O)NCc1ccccc1
> 250 | CC(=O)Nc1nc(O)c2cc(C=C(C)c3ccc(C(=O)O)cc3)cnc2n1
140 to 142 | COc1cc(Br)cc2c(Cl)cc(C)nc12
191 to 192 | Cn1c([N+](=O)[O-])cnc1-c1nnc2ccc(N=C(N)CCO)nn12
85 to 86 | COc1cc(OC)nc(N=C=S)n1
222 to 225 | CCOCCOc1ccc(-c2ccc3c(c2)C=C(C(=O)O)CCN3S(C)(=O)=O)cc1
83 to 85 | C[C@@H](N1CCN(S(C)(=O)=O)CC1)[C@](O)(Cn1cncn1)c1ccc(F)cc1F
88 to 89 | COc1cc(OC)cc(N2CCN(C(=O)N(C)c3cc4ccccc4nc3OC)CC2)c1
71 to 75 | OCCOc1ccccc1-c1ccccc1
139 to 140 | CNCC(=O)N1CC(c2ccc(Cl)cc2)Sc2ccccc21 (centres undefined)
254 | CC(C)(C)c1cc(-c2n[nH]c(=S)o2)cc(C(C)(C)C)c1O
215 to 216 | CCn1ncc2c3noc(-c4ccc(OC)cc4)c3cnc21
132 to 134 | CC1(C)OCCc2c1n(Cc1ccccc1)c1ccccc21

SMILES | melting point [°C]
O=C1C2CCN(CC2)C1Cc1cccnc1 (centres undefined) | 95
Fc1ccc(-c2[nH]nc(C3=C[C@@H]4C[C@@H](c5ccccc5)CN4CC3)c2-c2ccncc2)cc1Cl | 179 to 180
CC12CCC3C(CCC4CC(F)CCC43C)C1CCC2O (centres undefined) | 150 to 151
ClCCN1c2ccc(Cl)cc2C(c2ccsc2)=NCC1CCl (centres undefined) | 115 to 116
NNC1=Nc2ccc(Br)cc2C(c2ccccn2)=NC1 | 218 to 228
N#Cc1nn(-c2c(Cl)cc(C(F)(F)F)cc2Cl)c(N)c1-c1cccc2ccccc12 | 208
Nc1ccc(Br)cc1C(=O)c1ccccc1 | 109 to 110

— a melting point compilation (Tetko et al.; mined from patent text by program, amines drawn as free bases though some values may be those of a salt)
